Converted amounts (≈) assume the structure as drawn.
Key:
[1] = system: Mycoplasmoides pneumoniae; test: Antimicrobial activity against Mycoplasma pneumoniae ATCC 15531 by broth microdilution method
[2] = system: Mycoplasmoides pneumoniae; test: Antimicrobial activity against macrolide-resistant Mycoplasma pneumoniae clinical isolates obtained from bronchial aspirations expressing 23S rRNA A2063G mutant gene and P1 RFLP type I gene by broth microdilution method; format: functional

Row | Structure (SMILES) | MIC [1] | MIC [2] | MIC50 [2] | MIC90 [2]
1 | CC[C@H]1OC(=O)[C@H](C)[C@@H](O[C@H]2C[C@@](C)(OC)[C@@H](O)[C@H](C)O2)[C@H](C)[C@@H](O[C@@H]2O[C@H](C)C[C@H](N(C)C)[C@H]2O)[C@](C)(O)C[C@@H](C)CN(C)[C@H](C)[C@@H](O)[C@]1(C)O [AZITHROMYCIN] | ≤ 0.007 µg/mL | ≤ 0.007 µg/mL | 16 µg/mL (≈ 21.4 µM) | 64 µg/mL (≈ 85.4 µM)
2 | O=C(O)c1cn(C2CC2)c2cc(N3CCNCC3)c(F)cc2c1=O [CIPROFLOXACIN] | 0.25 µg/mL (≈ 0.754 µM) | – | – | –
3 | CC[C@H]1OC(=O)[C@H](C)[C@@H](O[C@H]2C[C@@](C)(OC)[C@@H](O)[C@H](C)O2)[C@H](C)[C@@H](O[C@@H]2O[C@H](C)C[C@H](N(C)C)[C@H]2O)[C@](C)(OC)C[C@@H](C)C(=O)[C@H](C)[C@@H](O)[C@]1(C)O [CLARITHROMYCIN] | ≤ 0.007 µg/mL | ≤ 0.007 µg/mL | 128 µg/mL (≈ 171 µM) | > 128 µg/mL
4 | C[C@H]1c2cccc(O)c2C(=O)C2=C(O)[C@]3(O)C(=O)C(C(N)=O)=C(O)[C@@H](N(C)C)[C@@H]3[C@@H](O)[C@@H]21.O [DOXYCYCLINE] | 0.03 µg/mL | ≤ 0.007 µg/mL | 0.06 µg/mL | 0.125 µg/mL
5 | CC[C@H]1OC(=O)[C@H](C)[C@@H](O[C@H]2C[C@@](C)(OC)[C@@H](O)[C@H](C)O2)[C@H](C)[C@@H](O[C@@H]2O[C@H](C)C[C@H](N(C)C)[C@H]2O)[C@](C)(O)C[C@@H](C)C(=O)[C@H](C)[C@@H](O)[C@]1(C)O [ERYTHROMYCIN] | ≤ 0.007 µg/mL | ≤ 0.007 µg/mL | > 128 µg/mL | > 128 µg/mL
6 | CO[C@@H]1[C@@H](O[C@@H]2O[C@H](C)[C@@H](O[C@H]3C[C@@](C)(O)[C@@H](OC(=O)CC(C)C)[C@H](C)O3)[C@H](N(C)C)[C@H]2O)[C@@H](CC=O)C[C@@H](C)[C@@H](O)/C=C/C=C/C[C@@H](C)OC(=O)C[C@H]1OC(C)=O [JOSAMYCIN] | ≤ 0.007 µg/mL | ≤ 0.007 µg/mL | 2 µg/mL (≈ 2.42 µM) | 4 µg/mL (≈ 4.83 µM)
7 | C[C@H]1COc2c(N3CCN(C)CC3)c(F)cc3c(=O)c(C(=O)O)cn1c23.C[C@H]1COc2c(N3CCN(C)CC3)c(F)cc3c(=O)c(C(=O)O)cn1c23.O [LEVOFLOXACIN] | 0.25 µg/mL | 0.015 µg/mL | 0.25 µg/mL | 0.5 µg/mL
8 | CN(C)c1ccc(O)c2c1C[C@H]1C[C@H]3[C@H](N(C)C)C(O)=C(C(N)=O)C(=O)[C@@]3(O)C(O)=C1C2=O [MINOCYCLINE] | 0.06 µg/mL (≈ 0.131 µM) | ≤ 0.007 µg/mL | 0.06 µg/mL (≈ 0.131 µM) | 0.125 µg/mL (≈ 0.273 µM)
9 | COc1c(N2C[C@@H]3CCCN[C@@H]3C2)c(F)cc2c(=O)c(C(=O)O)cn(C3CC3)c12 [MOXIFLOXACIN] | 0.06 µg/mL (≈ 0.149 µM) | – | – | –
10 | CN(C)[C@@H]1C(O)=C(C(N)=O)C(=O)[C@@]2(O)C(O)=C3C(=O)c4c(O)cccc4[C@@](C)(O)[C@H]3C[C@@H]12 [TETRACYCLINE] | 0.06 µg/mL (≈ 0.135 µM) | 0.015 µg/mL (≈ 0.0338 µM) | 0.06 µg/mL (≈ 0.135 µM) | 0.125 µg/mL (≈ 0.281 µM)
